The source made the active and inactive calls. No cut-off for these calls is given here.
Experiments:
[1] = species: Mus musculus; assay: Myorelaxant effect in ddY mouse assessed as decrease in endurance latency time by rota-rod test; format: functional, organism-based
[2] = Sedative activity in ddY mouse assessed as decrease in spontaneous locomotor activity at 0.00004 mg administered via inhalation relative to control; set-up: scale not given: the % may be the effect or the level left; details: in vivo, inhaled_or_intranasal, at 40 ng
[3] = Sedative activity in ddY mouse assessed as decrease in spontaneous locomotor activity at 0.0004 mg administered via inhalation relative to control; set-up: scale not given: the % may be the effect or the level left; details: in vivo, inhaled_or_intranasal
[4] = system: Mus musculus; assay: Sleep-promoting activity in ddY mouse assessed as enhancement of pentobarbital-induced sleep resulting in prolonged sleeping time at 0.004 mg administered via inhalation relative to control; format: functional
[5] = Sedative activity in ddY mouse assessed as decrease in spontaneous locomotor activity at 0.4 mg administered via inhalation relative to control; set-up: scale not given: the % may be the effect or the level left; details: in vivo, inhaled_or_intranasal
[6] = Sedative activity in ddY mouse assessed as decrease in caffeine-induced spontaneous locomotor activity at 0.004 mg administered via inhalation post caffeine stimulation (reference value: 68 %); set-up: scale not given: the % may be the effect or the level left; details: in vivo, inhaled_or_intranasal
[7] = Sedative activity in ddY mouse assessed as decrease in spontaneous locomotor activity at 0.004 mg administered via inhalation relative to control; set-up: scale not given: the % may be the effect or the level left; details: in vivo, inhaled_or_intranasal
[8] = system: Mus musculus; assay: Myorelaxant effect in ddY mouse assessed as decrease in endurance latency time at 0.004 mg administered via inhalation by rota-rod test; format: functional, organism-based
[9] = Sedative activity in ddY mouse assessed as decrease in spontaneous locomotor activity when administered via inhalation relative to control; set-up: scale not given: the % may be the effect or the level left; details: in vivo, inhaled_or_intranasal
[10] = Toxicity in mouse assessed as lethal dose; details: in vivo
[11] = Sedative activity in ddY mouse assessed as decrease in spontaneous locomotor activity at 0.04 mg administered via inhalation relative to control; set-up: scale not given: the % may be the effect or the level left; details: in vivo, inhaled_or_intranasal
[12] = system: Mus musculus; assay: Sleep-promoting activity in ddY mouse assessed as decrease in pentobarbital-induced sleep ing duration at 3 mg/kg relative to control; format: functional; set-up: scale not given: the % may be the effect or the level left
[13] = system: Mus musculus; assay: Myorelaxant effect in ddY mouse assessed as decrease in endurance latency time at 0.000004 mg administered via inhalation by rota-rod test; format: functional, organism-based; details: dose 4 ng
[14] = system: Mus musculus; assay: Sleep-promoting activity in ddY mouse assessed as enhancement of pentobarbital-induced sleep resulting in prolonged sleeping time at 0.000004 mg administered via inhalation relative to control; format: functional; details: dose 4 ng
[15] = Sedative activity in ddY mouse assessed as decrease in caffeine-induced spontaneous locomotor activity at 0.000004 mg administered via inhalation post caffeine stimulation (reference value: 68 %); set-up: scale not given: the % may be the effect or the level left; details: in vivo, inhaled_or_intranasal, at 4 ng

For CN1C(=O)CN=C(c2ccccc2)c2cc(Cl)ccc21, the Activity [1] was “Active”.
CC(C)C12C=CC(C)(CC1)OO2 (configuration not stated) [ASCARIDOLE] gave an Activity [2] of 64%, an Activity [3] of 52% and an Activity [4] of 42%. It also gave an Activity [5] of 56%, an Activity [6] of 47% and an Activity [7] of 67%. The Activity [8] was “inactive”, the Activity [9] was 56% and the LD50 [10] was 400 mg/kg. It also gave an Activity [11] of 64%.
In the case of CCOC(=O)c1ncn2c1CN(C)C(=O)c1cc(F)ccc1-2 [FLUMAZENIL], the Activity [12] is reported as 31%.
In the case of Cc1ccc(C(C)C)cc1 [P-CYMENE], the Activity [2] is reported as 69%, the Activity [3] is reported as 57% and the Activity [13] is reported as “inactive”. For the same compound, the Activity [14] was 77%, the Activity [5] was 68% and the Activity [7] was 61%. It also gave an Activity [15] of 50%, an Activity [9] of 63% and an LD50 [10] of 4750 mg/kg. It also gave an Activity [11] of 67%.

— ChEMBL document CHEMBL4834391, “Role of Ascaridole and p-Cymene in the Sleep-Promoting Effects of Dysphania ambrosioides Essential Oil via the GABAergic System in a ddY Mouse Inhalation Model” (J Nat Prod, 2021)
